Active and inactive are the calls of the source.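 How the source made its calls: active means compounds giving half or more protection of infected cells from virus-caused growth loss, again on retest; inactive means the rest.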 Where a SMILES comes first, the peptide text is derived from it. The star is where a group is joined. Cbz = O=C(OCc1ccccc1)*
Test system: CEM cells HIV-1 protection, formazan growth assay
Test: NCI AIDS Antiviral Assay
Details: for IC50: measured here: growth of uninfected CEM cells
In short: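 Human CEM cells, uninfected and HIV-1-infected, exposed to five drug concentrations; growth measured by soluble formazan assay and scored as percent protection from infection, with protecting compounds retested.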

Structure (SMILES)	EC50 [µM]	IC50 [µM]	outcome
Cc1cc(OC(=O)NCn2cc(-c3ccccc3)nn2)ccc1Cl	> 200	95.5	–
CC1=C(C)SC(=C2Sc3c(n(C)c(=O)n(C)c3=O)S2)S1	182	> 200	–
Cc1cc2cc3ccccc3cc2c(=O)[nH]1	> 200	182	–
CCCSS[C@H]1NC(=O)[C@H]1NC(=O)COc1ccccc1	> 21.9	> 21.9	–
O=C1Cc2cc3ccccc3nc2-c2ccccc2N1	> 200	> 200	–
O=C(/C=C/c1ccccc1)c1ccc(Sc2ccccc2)cc1	> 2	0.107	–
CC(=O)OC1(C)C=C/C(=N\S(=O)(=O)c2ccc(C)cc2)c2ccccc21 (configuration not stated)	> 200	9.33	–
CCCC(C)(O)CN (configuration not stated)	–	–	inactive
COC(=O)C(NC(=O)C(C)NC(=O)C1CCCN1C(=O)CNC(=O)C(CO)NC(=O)C(NC(=O)OCc1ccccc1)C(C)O)C(C)O (configuration not stated) (Cbz-TSGPAT-OMe; configuration not given here)	> 363	> 363	–
CC1C[C@@H]2OC(=O)C(C)[C@H]2C[C@]2(C)C(O)CC(O)C12 (some centres not stated)	> 933	47.9	–
CC1C2C=CC1C(c1c3ccc(=O)c(O)c-3oc3c(O)c(O)ccc13)C2C(=O)O (configuration not stated)	2.04	> 200	–
Nc1nc(N)c2ncn(C3C=CC(CO)CC3)c2n1 (configuration not stated)	> 200	> 200	–
CCOC(=O)/C=C(/c1cc(C)[nH]c1C)N(CC)CC	> 200	> 200	–
COC(=O)C1CCC(=O)N1CN(C(C)=O)c1cc(OC)ccc1OC (configuration not stated)	> 200	> 200	–
c1ccc(C2(c3ccccc3)OCCO2)cc1	> 200	> 200	–
O=S1CCS(=O)CCS(=O)CC1 (configuration not stated)	> 16.6	> 16.6	–
N#C/C(=C/n1c(=S)[nH]c2ccc([N+](=O)[O-])cc21)C(N)=O	> 200	> 200	–
CC(C)=CCCC1(C)C=Cc2c(ccc3c(C)noc23)O1 (configuration not stated)	> 18.2	> 18.2	–
Cc1ccc(S(=O)(=O)N/N=C2\CC3C4C=CC3C2C4)cc1 (configuration not stated)	> 200	> 200	–

Structure (SMILES)	EC50 [µM]	IC50 [µM]	outcome
Cn1c(=O)oc2cc(C(O)CN3CCN(Cc4ccc5c(c4)OCO5)CC3)ccc21 (configuration not stated)	> 200	> 200	–
Cn1c2ccccc2c2nnc(SCCN3CCOCC3)nc21	> 200	> 200	–
CCOC(=O)Cn1c(=O)n(C)c(=O)c2[nH]cnc21	> 1000	> 1000	–
CN(C)c1ccc(/C=C(\NC(=O)c2ccccc2)c2nc3ncncc3[nH]2)cc1	–	–	inactive
O=C(c1cccs1)N(C(=S)N1CCN(c2ccccc2)CC1)c1ccccc1	> 12.9	> 12.9	–
CCN1CCC(O)(c2ccc(Cl)c(Cl)c2)C(C(=O)c2ccc(Cl)c(Cl)c2)C1 (configuration not stated)	> 67.6	38.9	–
NC(=O)c1ccc(N=Nc2c(O)c3ccccc3[nH]c2=O)cc1	> 200	> 200	–
CN1CCC2(CC1)C(=NC1CCCCC1)NC(=S)N2c1ccccc1	> 100	> 100	–
S=C=NC/C(Cl)=C/Cl	> 200	129	–
CCc1cccc(C(C)CC)c1N=C(NC(=O)c1ccccc1C(=O)NC(=Nc1c(CC)cccc1C(C)CC)SC)SC (configuration not stated)	> 56.2	> 56.2	–
O=C(Nc1ccc(-c2ccccn2)oc1=O)c1ccccc1	> 200	> 200	–
O=[N+]([O-])c1ccc(S(=O)(=O)N/N=C/C=C/c2ccccc2)cc1	> 151	> 151	–
Fc1ccc(OCc2ccc3nc(-c4ccccc4)c(Cl)nc3c2)cc1	> 100	> 100	–
CC(=O)c1cccc(NC(=O)/C(=N\NC(=S)NN)C2C(=O)Nc3ccccc3S2=O)c1 (configuration not stated)	> 282	> 282	–
NCCNCCCCCCCCCCCCOS(=O)(=O)O	> 112	> 112	–
COC1CCON1C(=O)c1ccccc1 (configuration not stated)	> 200	> 200	–
Cc1cc(-c2ccccc2)oc(=O)c1NC(=O)c1cnccn1	> 200	141	–
CCOP(=O)(C=C=C(C)C)OCC	> 200	> 200	–
